# According to PubChem BioAssay (NCI):
# Values joined by “and” are separate entries in the source; they are usually repeats but may differ in a detail not shown here. Equal entries are not always repeated.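 Test compounds were applied to cells in 96-well plates for 48 hours at 5 doses. GI50 is the concentration that inhibits growth by half. TGI: total growth inhibition.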
# Test system: MDA-MB-468 breast
# Assay: inhibition of tumour cell growth, NCI panel, 48 h
Structure (SMILES),GI50,TGI
CCN=C1C=CC(=C(c2ccc(N(C)C)cc2)c2ccc(N(C)C)cc2)c2ccccc21,0.047 µM,0.346 µM
COc1cc2nc(Cl)nc(Nc3cccc(C(=O)/C=C/c4ccccc4)c3)c2cc1OC,3.39 µM,> 100 µM
Cc1cc(N2CCCCC2)nc(N(CCNc2ccnc3cc(Cl)ccc23)Cc2ccco2)n1,1.74 µM,3.87 µM
C[C@]12CC[C@H]3[C@@H](CC=C4C[C@@H](O)CC[C@@]43C)[C@@H]1CC[C@@H]2[C@](C)(O)CCc1cccnc1,1.91 µM,> 100 µM
Fc1ccc(-c2nc3n(c2-c2ccncc2)CCS3)cc1,4.63 µM,> 25 µM
CC1=C2C(=C[C@@](C)(COC(=O)c3ccc(S(=O)(=O)F)cc3)[C@@H]2OC(=O)c2ccc(S(=O)(=O)F)cc2)C(=O)[C@](C)(O)C12CC2,0.187 µM,0.465 µM
O=C(CCN1CCCC1)Nc1ccc2c(NCc3ccc(F)cc3)c3ccccc3nc2c1,0.318 µM,1.4 µM
COc1cc2c(cc1OC)-c1ccc3cc4c(cc3c1N(CCN1CCCC1)C2)OCO4,0.653 µM,2.2 µM
CCCN1C(=O)/C(=c2\sc3n(c2=O)C2C(NN=3)N(CC)C(=O)N2CC)c2ccccc21 (stereo not given),0.464 µM,10.4 µM
CCOC(=O)Cc1c[nH]c(=S)[nH]c1=O,> 100 µM,> 100 µM
CCn1c(-c2nonc2N)nc2cncc(C(=O)N3CCNCC3)c21,> 25 µM,> 25 µM
NC(=O)[C@H]1CCN(c2ncnc(N)c2F)C[C@@H]1N1CCC[C@@H](Nc2cc(Cl)cc(C(F)(F)F)c2)C1=O,11.2 µM,34.4 µM
OCC1OC(n2ccc3c2ncn2ncnc32)C(O)C1O (stereo not given),0.279 µM,3.19 µM
N#Cc1ncc(/N=C/c2ccc(N(CCCl)CCCl)cc2)s1,0.436 µM,3.65 µM
O=C(Nc1cccc(Cl)c1)Nc1ncc(CCNc2ncnc3ccsc23)s1,0.196 µM and 0.952 µM,8.39 µM and > 10 µM
CNC(=O)c1cc(N2CCc3cc(NC(=O)Nc4ccc(N5CCN(C)CC5)c(C(F)(F)F)c4)ccc32)ccn1,3.68 µM,7.95 µM
CCN1C(=O)N(CC)C2C1NN=c1s/c(=C3\C(=O)N(C(C)C)c4ccccc43)c(=O)n12 (stereo not given),0.321 µM,5.58 µM
C[C@]12CC[C@H]3[C@@H](CCC4=CC(=O)CC[C@@H]43)[C@@H]1CC[C@@H]2OC(=O)N(CCCl)N=O,0.512 µM,5.7 µM
COc1cc(Cn2cc3c(c2)-c2oncc2CC3)cc(OC)c1OC,0.0147 µM,0.0541 µM
COc1ccc([C@@H]2[C@@H](O)C(=O)N2c2cc(OC)c(OC)c(OC)c2)cc1F,0.0269 µM,0.398 µM
CCc1ccc(NC(=O)Nc2c[nH]c3ccccc23)cc1,18.8 µM,> 56.5 µM
O=C(CCl)c1ccc([N+](=O)[O-])o1,1.06 µM,2.77 µM
CC(=O)/C(N=Nc1ccc2oc(=O)ccc2c1)=C(\C)O,2.74 µM,12.7 µM

Structure (SMILES),GI50,TGI
CC(C)(O)c1ccc(N2CCN(c3nnc(Cc4ccccc4)c4ccccc34)CC2)nc1,2.78 µM,12.8 µM
N=C(N)c1nn(C2OC(CO)C(O)C2O)c2nc[nH]c(=O)c12 (stereo not given),0.372 µM,1.69 µM
CCCC(=O)NC(c1cccnc1)c1ccc2c(C)ccnc2c1O (stereo not given),1.68 µM,6.91 µM
C=C(C)[C@@H]1CC[C@]2(C(=O)NCCCN)CC[C@]3(C)[C@H](CC[C@@H]4[C@@]5(C)CC[C@H](O)C(C)(C)[C@@H]5CC[C@]43C)[C@@H]12,12.6 µM,48.5 µM
COc1cccc(C2=C(c3cn(C)c4ccccc34)C(=O)NC2=O)c1,5.13 µM,> 25 µM
O=S(=O)(c1ccc(NC(=S)NCc2cccnc2)cc1)N1CCCCC1,9.8 µM,95.8 µM
COc1ccc(-c2ccc(-c3ccc(C(=N)N)nc3)s2)cc1,1.63 µM,3.11 µM
CC1=C(C(=O)OCc2ccccc2)C(c2ccc3c(c2)OCO3)n2c(nc3ccccc32)N1 (stereo not given),0.247 µM,39.5 µM
CCN(CC)c1ccc(/C=C/c2cc(C)c3ccccc3n2)cc1,3.06 µM,9.02 µM
COc1cc2cc(Oc3ccc(NC(=O)Nc4ccc(Cl)c(C(F)(F)F)c4)cc3)c(C)nc2cc1OCCN1CCCCC1,1.34 µM,2.85 µM
CCN(CC)CCOc1ccc(C(=C(C)c2ccc(Cl)cc2)c2ccc(OCCN(CC)CC)cc2)cc1,0.556 µM,1.1 µM
CC1=C(C)C(=O)C(Nc2cccc(C(F)(F)F)c2)=C(Cl)C1=O,1.24 µM,2.94 µM
CC[C@H](Nc1nc(N)nc(C)c1C#N)c1nc2cccc(CN(C)c3ncc(C(=O)NO)cn3)c2c(=O)n1-c1ccccc1,0.367 µM,10.5 µM
CCCN(Cc1ccc(F)cc1)c1ccc(CO)c(Cl)c1,0.0212 µM,0.0625 µM
CC12CCC=CC1CCC1C2CCC2(C)C(c3ccc(=O)oc3)CCC12O (stereo not given),0.313 µM,1.22 µM
O=c1cc(CNc2cc(F)cc(F)c2)c2ccc(I)cc2[nH]1,0.409 µM,> 100 µM
CN(C)CCNC(=O)c1cccn2c(=O)c3cc4ccccc4cc3nc12,0.299 µM,1.12 µM
c1ccc2nc(Cn3c[n+](Cc4ccc5ccccc5n4)c4ccccc43)ccc2c1,0.645 µM,5.44 µM
COc1ccc(Cn2nc(-c3cc(OC)c(OC)c(OC)c3)c3c2CCc2cnoc2-3)cc1OC,1.94 µM,8.84 µM
N#CSc1ncnc2nc[nH]c12,0.522 µM,> 100 µM
O=C1C(Cl)=C(N/N=c2/[nH][nH]/c(=N/NC3=C(Cl)C(=O)c4ccccc4C3=O)c3ccccc23)C(=O)c2ccccc21,14.7 µM,32.9 µM
CN(C)c1ccc2nc3ccc(=[N+](C)C)cc-3oc2c1,0.62 µM,3.58 µM
